Our source for the IC50 values is PMC11004395 (Saudi Pharmaceutical Journal : SPJ, 2024).

The target in this assay is bovine xanthine oxidase (BXO) (Bos taurus, UniProt P80457). Description: XO inhibitory assay, double enzyme detection. It counts as biochemical. As to conditions: read-out: IC50 of moderately active compounds, moderate activities (Fig. 6).
Sequence of bovine xanthine oxidase (BXO) (P80457 whole entry): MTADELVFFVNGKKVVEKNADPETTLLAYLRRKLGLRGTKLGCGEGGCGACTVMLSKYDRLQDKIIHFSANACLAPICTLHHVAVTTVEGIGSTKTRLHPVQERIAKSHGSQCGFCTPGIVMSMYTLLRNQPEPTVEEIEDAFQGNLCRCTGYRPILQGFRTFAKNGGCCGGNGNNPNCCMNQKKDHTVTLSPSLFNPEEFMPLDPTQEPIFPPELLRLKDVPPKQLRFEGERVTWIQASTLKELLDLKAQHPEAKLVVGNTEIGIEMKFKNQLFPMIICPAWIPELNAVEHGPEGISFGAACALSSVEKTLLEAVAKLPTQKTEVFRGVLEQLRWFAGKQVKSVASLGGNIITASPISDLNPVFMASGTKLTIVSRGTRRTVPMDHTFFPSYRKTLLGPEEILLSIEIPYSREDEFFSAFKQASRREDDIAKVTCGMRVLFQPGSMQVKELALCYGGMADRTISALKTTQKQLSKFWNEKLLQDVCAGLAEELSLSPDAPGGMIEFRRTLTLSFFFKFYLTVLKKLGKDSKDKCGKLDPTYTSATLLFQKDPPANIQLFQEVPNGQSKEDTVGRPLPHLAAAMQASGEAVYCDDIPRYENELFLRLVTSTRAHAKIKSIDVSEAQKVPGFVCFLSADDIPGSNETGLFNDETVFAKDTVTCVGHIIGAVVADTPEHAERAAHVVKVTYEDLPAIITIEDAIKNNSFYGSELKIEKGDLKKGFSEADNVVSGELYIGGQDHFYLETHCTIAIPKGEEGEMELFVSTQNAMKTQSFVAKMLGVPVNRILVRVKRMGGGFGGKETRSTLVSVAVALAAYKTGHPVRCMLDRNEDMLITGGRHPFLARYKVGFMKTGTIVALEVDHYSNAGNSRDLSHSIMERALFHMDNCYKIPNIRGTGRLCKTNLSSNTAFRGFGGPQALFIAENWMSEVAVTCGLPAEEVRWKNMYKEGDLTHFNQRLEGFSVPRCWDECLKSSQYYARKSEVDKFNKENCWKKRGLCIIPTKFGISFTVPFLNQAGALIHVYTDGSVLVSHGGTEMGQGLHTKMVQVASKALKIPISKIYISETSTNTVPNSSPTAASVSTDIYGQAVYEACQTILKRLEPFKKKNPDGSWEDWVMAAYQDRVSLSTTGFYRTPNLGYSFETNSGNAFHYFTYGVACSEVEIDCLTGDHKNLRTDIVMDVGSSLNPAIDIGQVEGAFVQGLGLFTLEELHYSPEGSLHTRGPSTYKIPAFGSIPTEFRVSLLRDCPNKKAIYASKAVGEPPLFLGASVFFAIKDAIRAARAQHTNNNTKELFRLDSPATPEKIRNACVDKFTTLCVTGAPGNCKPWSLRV

`O=[N+]([O-])c1ccc(C=Nn2c(Cn3nnc4ccccc43)n[nH]c2=S)cc1` [Compound 8, 3-((1H-Benzo[d][1,2,3]triazol-1-yl)methyl)-4-((4-nitrobenzylidene)amino)-1H-1,2,4-triazole-5(4H)-thione]: the IC50 was ≤ 263 µM.
